According to patent publication US6376670B1, “Quinoline-indole antimicrobial agents, uses and compositions related thereto” (Sepracor Inc., priority 1997, dated 2002):
Like-named read-outs stand apart in the source and are kept apart here.

Experiments:
Test in all cases: Determination of MIC values (BHI broth, 96 well microtiter plate)
Type in all cases: cell-based
[1] = system: vancomycin-resistant Enterococcus spp. (VRE); settings: BHI broth; for MIC: Enterococcus, VRE, read-out: MIC VREF
How it was run: (§1)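 Broth microdilution in BHI broth used final compound concentrations of 25 to 0.39 μg/mL, diluted from DMSO solutions. Inoculum was 10^5–10^6 cells/mL from cultures grown to a 0.5 McFarland standard. Plates were incubated overnight (~16 h) at 37 °C in about 7–10% CO2; MIC was the lowest concentration with no visible growth.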

Streptococcus pneumoniae = settings: BHI broth; for MIC: Streptococcus pneumoniae, read-out: MIC S. pneu
How it was run: as §1

[2] = system: methicillin-resistant Staphylococcus aureus (MRSA); settings: BHI broth; for MIC: Staphylococcus aureus, MRSA, read-out: MIC MRSA
How it was run: as §1

[3] = 16 h, 37° C., overnight (about 16 hours)
[4] = 37° C., overnight (about 16 hours)

Row | SMILES | MIC ([1]; VREF, overnight 37° C.) | MIC (Streptococcus pneumoniae; S. pneu, overnight 37° C.) | MIC ([2]; overnight 37° C.) | MIC ([1]; 16 h, 37° C., about 16 hours) | MIC (Streptococcus pneumoniae; 37° C., about 16 hours) | MIC ([2]; 16 h, 37° C., about 16 hours) | other results
1 | NCc1ccc(CNC(=O)c2cc(-c3c[nH]c4ccc(Br)cc34)nc3c(Cl)c(Cl)ccc23)cc1 [Example 275] | < 7 mg/L | < 25 mg/L | < 7 mg/L |  |  |  | 
2 | NCc1ccc(CNC(=O)c2cc(-c3c[nH]c4ccc(Br)cc34)nc3cc(Cl)c(C#CCN4CC=CCC4)cc23)cc1 [Example 282] | < 7 mg/L | < 7 mg/L | < 7 mg/L |  |  |  | 
3 | O=[N+]([O-])c1cccc2nc(-c3c[nH]c4ccc(Br)cc34)ccc12 [Example 387] | > 25 mg/L | > 25 mg/L | > 25 mg/L |  |  |  | 
4 | Cn1cc(-c2cc(C(=O)NCC3CCC(CN)CC3)c3cc(Cl)ccc3n2)c2cc(Br)ccc21 (stereo not drawn) [Example 368] | < 7 mg/L | < 7 mg/L | < 7 mg/L |  |  |  | 
5 | Cc1cccc2ccc(-c3c[nH]c4cc(Cl)ccc34)nc12 [Example 410] |  |  |  | > 25 mg/L | < 25 mg/L | < 25 mg/L | 
6 | Cn1cc(-c2cc(C(=O)NCc3ccc(CN)cc3)c3cc(C#CCN4CCCCC4)ccc3n2)c2cc(Br)ccc21 [Example 376] | < 25 mg/L | < 7 mg/L | < 25 mg/L |  |  |  | 
7 | Cc1cccc2ccc(-c3c[nH]c4ccc(Br)cc34)nc12 [Example 422] |  |  |  | > 25 mg/L | > 25 mg/L | > 25 mg/L | 
8 | O=C(NCc1cc(-c2c[nH]c3ccc(Br)cc23)nc2cc(Cl)ccc12)NC1CCCCC1 [Example 524] |  |  |  | < 7 mg/L | < 7 mg/L | < 7 mg/L | 
9 | NCC(O)CNC(=O)c1cc(-c2c[nH]c3ccc(Br)cc23)nc2cc(Cl)cc(Cl)c12 (stereo not drawn) [Example 533] |  |  |  | < 7 mg/L | < 7 mg/L | < 7 mg/L | 
10 | Cn1cc(-c2cc(C(=O)NCCN)c3cc(C#CCNCCc4ccccc4)ccc3n2)c2cc(Br)ccc21 [Example 399] | < 7 mg/L | < 7 mg/L | < 7 mg/L |  |  |  | 
11 | NCCNC(=O)c1cc(-c2c[nH]c3ccc(Br)cc23)nc2c(Cl)cccc12 [Example 318] | < 7 mg/L | < 7 mg/L | < 7 mg/L |  |  |  | 
12 | CNCCN(C)C(=O)c1cc(-c2c[nH]c3ccc(Br)cc23)nc2cc(Cl)ccc12 [Example 501] |  |  |  | < 7 mg/L | < 7 mg/L | < 7 mg/L | 
13 | Cc1ccc2nc(-c3c[nH]c4ccc(Br)cc34)ccc2c1 [Example 432] |  |  |  | > 25 mg/L | < 7 mg/L | < 7 mg/L | 
14 | Clc1ccc2c(Cl)cc(-c3c[nH]c4ccc(Cl)cc34)nc2c1 [Example 475] |  |  |  | < 7 mg/L | < 7 mg/L | < 7 mg/L | 
15 | CC(C)CNC(=O)c1cc(-c2c[nH]c3ccc(Br)cc23)nc2ccc(C#CCN3CCCCC3)cc12 [Example 519] |  |  |  | > 25 mg/L | < 7 mg/L | < 7 mg/L | 
16 | Cc1ccc2nc(-c3c[nH]c4ccc(Cl)cc34)ccc2c1 [Example 441] |  |  |  | > 25 mg/L | > 25 mg/L | > 25 mg/L | 
17 | NCc1ccc(COCc2cc(-c3c[nH]c4ccc(Br)cc34)nc3ccc(C(F)(F)F)cc23)cc1 [Example 154] |  |  |  |  |  |  | MIC [1, 3]: < 7 mg/L; MIC (Streptococcus pneumoniae; [4]): < 7 mg/L; MIC [2, 3]: < 7 mg/L
18 | CC(C)(C)NC(=O)NCc1cc(-c2c[nH]c3ccc(Br)cc23)nc2cc(Cl)ccc12 [Example 521] |  |  |  | > 25 mg/L | < 7 mg/L | < 7 mg/L | 
19 | CNCCN(C)C(=O)c1cc(-c2cn(C)c3ccc(Br)cc23)nc2cc(Cl)ccc12 [Example 506] |  |  |  | < 7 mg/L | < 7 mg/L | < 7 mg/L | 
20 | OCc1cc(-c2c[nH]c3ccc(Br)cc23)nc2c(Br)cccc12 [Example 458] |  |  |  | < 7 mg/L | < 7 mg/L | < 7 mg/L | 
21 | NCCNC(=O)c1cc(-c2c[nH]c3ccc(Cl)cc23)nc2ccc(Br)cc12 [Example 313] | < 7 mg/L | < 7 mg/L | < 7 mg/L |  |  |  | 
22 | OCc1cc(-c2c[nH]c3ccc(Br)cc23)nc2cc(F)ccc12 [Example 490] |  |  |  |  |  |  | MIC VREF ([1]; 37° C., about 16 hours): >25 mg/L; MIC S. pneu (Streptococcus pneumoniae; 37° C., about 16 hours): < 7 mg/L; MIC MRSA ([2]; 37° C., about 16 hours): < 7 mg/L

Row | SMILES | MIC ([1]; VREF, overnight 37° C.) | MIC (Streptococcus pneumoniae; S. pneu, overnight 37° C.) | MIC ([2]; overnight 37° C.) | MIC ([1]; 16 h, 37° C., about 16 hours) | MIC (Streptococcus pneumoniae; 37° C., about 16 hours) | MIC ([2]; 16 h, 37° C., about 16 hours) | other results
23 | O=C(O)c1cc(-c2c[nH]c3ccc(Br)cc23)nc2ccc(C#CCN3CCCC3)cc12 [Example 234] | > 25 mg/L | > 25 mg/L | > 25 mg/L |  |  |  | 
24 | NCc1ccc(CNC(=O)c2cc(-c3c[nH]c4ccc(Br)cc34)nc3c(Cl)cc(I)cc23)cc1 [Example 102] |  |  |  |  |  |  | MIC [1, 3]: < 7 mg/L; MIC (Streptococcus pneumoniae; [4]): < 7 mg/L; MIC [2, 3]: < 7 mg/L
25 | CC(C)N(CC#Cc1ccc2nc(-c3cn(C)c4ccc(Br)cc34)cc(C(=O)NCc3ccc(CN)cc3)c2c1)C(C)C [Example 398] | < 7 mg/L | < 7 mg/L | < 7 mg/L |  |  |  | 
26 | Clc1ccc2nc(-c3c[nH]c4cccc(Cl)c34)ccc2c1 [Example 201] | < 25 mg/L | < 7 mg/L | < 7 mg/L |  |  |  | 
27 | Clc1ccc2[nH]cc(-c3ccc4ccccc4n3)c2c1 [Example 168] |  |  |  |  |  |  | MIC [1, 3]: > 25 mg/L; MIC (Streptococcus pneumoniae; [4]): < 7 mg/L; MIC [2, 3]: < 7 mg/L
28 | Cn1cc(-c2cc(C(=O)NCc3cccc(CN)c3)c3ccc(I)cc3n2)c2cc(Br)ccc21 [Example 330] | < 7 mg/L | < 7 mg/L | < 7 mg/L |  |  |  | 
29 | NCc1ccc(CNC(=O)c2cc(-c3c[nH]c4ccc(Br)cc34)nc3ccc(C#CCNCCc4ccccc4)cc23)cc1 [Example 223] | < 7 mg/L | < 7 mg/L | < 7 mg/L |  |  |  | 
30 | Cn1cc(-c2cc(C(=O)NCC3CCC(CN)CC3)c3ccc(I)cc3n2)c2cc(Br)ccc21 (stereo not drawn) [Example 331] | < 7 mg/L | < 7 mg/L | < 7 mg/L |  |  |  | 
31 | Cc1cccc2ccc(-c3c[nH]c4ccc(C#N)cc34)nc12 [Example 409] |  |  |  | > 25 mg/L | > 25 mg/L | > 25 mg/L | 
32 | NCC1CCCC(CNC(=O)c2cc(-c3c[nH]c4ccc(Br)cc34)nc3cc(I)ccc23)C1 (stereo not drawn) [Example 250] | < 7 mg/L | < 7 mg/L | < 7 mg/L |  |  |  | 
33 | NCC1CCCC(CNC(=O)c2cc(-c3c[nH]c4ccc(Br)cc34)nc3ccc(Cl)cc23)C1 (stereo not drawn) [Example 132] |  |  |  |  |  |  | MIC [1, 3]: < 7 mg/L; MIC (Streptococcus pneumoniae; [4]): < 7 mg/L; MIC [2, 3]: < 7 mg/L
34 | NCc1ccc(CNC(=O)c2cc(-c3c[nH]c4ccc(Br)cc34)nc3ccc(C#CCN4CCSCC4)cc23)cc1 [Example 239] | < 7 mg/L | > 25 mg/L | < 7 mg/L |  |  |  | 
35 | COc1ccc2nc(-c3c(C)[nH]c4ccc(Cl)cc34)ccc2c1 [Example 429] |  |  |  | > 25 mg/L | < 7 mg/L | < 7 mg/L | 
36 | NC1CCCCC1NC(=O)c1cc(-c2c[nH]c3ccc(Br)cc23)nc2c(Cl)c(Cl)ccc12 (stereo not drawn) [Example 280] | < 7 mg/L | < 7 mg/L | < 7 mg/L |  |  |  | 
37 | Cc1ccc2nc(-c3c(C)[nH]c4ccc(C)cc34)ccc2c1 [Example 439] |  |  |  | > 25 mg/L | > 25 mg/L | > 25 mg/L | 
38 | OCc1cc(-c2c[nH]c3ccc(Br)cc23)nc2cc(F)ccc12 [Example 446] |  |  |  |  | < 7 mg/L | < 7 mg/L | MIC VREF ([1]; 37° C., about 16 hours): <7 mg/L
39 | O=C(O)c1cc(-c2c[nH]c3ccc(Br)cc23)nc2ccc(C#CCNC3CCCCC3)cc12 [Example 233] | < 25 mg/L | < 25 mg/L | > 25 mg/L |  |  |  | 
40 | NCCNC(=O)c1cc(-c2c[nH]c3ccc(Br)cc23)nc2cc(F)ccc12 [Example 321] | < 7 mg/L | < 7 mg/L | < 7 mg/L |  |  |  | 
41 | COc1ccc2nc(-c3c[nH]c4ccc(OCc5ccccc5)cc34)ccc2c1 [Example 450] |  |  |  | > 25 mg/L | > 25 mg/L | > 25 mg/L | 
42 | COc1ccc2[nH]cc(-c3ccc4ccc(C)cc4n3)c2c1 [Example 479] |  |  |  | > 25 mg/L | < 25 mg/L | > 25 mg/L | 
43 | OCc1cc(-c2c[nH]c3ccc(Br)cc23)nc2ccc(F)cc12 [Example 443] |  |  |  | < 25 mg/L | < 7 mg/L | < 7 mg/L | 
